Test results from patent publication US20260286573A1, “3D PRINTING ELECTROSPINNING SYSTEMS AND METHODS” (Board of Regents, The University of Texas System, priority 2023, published 2026).

Test: Thermogravimetric analysis (TGA), thermal stability
Type: physicochemical
Details: for decrease in mass, initial phase of TGA (surface-absorbed water): 10 °C/min, nitrogen
Procedure: Thermogravimetric Analysis (TGA). FIG. 13 provides data showing thermogravimetric analysis (TGA) of raw materials and mixtures according to some examples. In some examples, the thermal properties of the raw materials and physical mixtures may be determined through a Mettler-Toledo TGA/DSC1 analyzer (Mettler-Toledo, Schwerzenbach, Switzerland). Sample raw materials and physical mixtures may be placed in an open ceramic crucible and ramped from 35° C. to 600° C. at a rate of 10° C./min. A furnace may be purged using ultra-purified nitrogen at a flow rate of 50 mL/min.
Thermogravimetric analysis (TGA) was conducted to examine the degradation patterns and thermal stabilities of EPO, S100, CUR, RTV, and Xspin bi-fibers (FIG. 13). TGA measures the change in sample mass as a function of temperature using a thermobalance.

Row | weight loss, second phase of TGA (between 245 and 420° C.) [%] | decrease in mass, initial phase of TGA (surface-absorbed water) | weight loss, second phase of TGA (between 20° and 250° C.) [%] | second weight loss (TGA) (between 30° and 395° C.) | SMILES
1 | 60 | no losses |  |  | COc1cc(/C=C/C(=O)CC(=O)/C=C/c2ccc(O)c(OC)c2)ccc1O [CUR, Curcumin]
2 |  | no losses | 40 | ~ 50% | CC(C)c1nc(CN(C)C(=O)N[C@H](C(=O)N[C@@H](Cc2ccccc2)C[C@H](O)[C@H](Cc2ccccc2)NC(=O)OCc2cncs2)C(C)C)cs1 [RTV, Ritonavir]
